Data taken from US11827628B2, “Compositions and methods for inhibition of the JAK pathway” (Rigel Pharmaceuticals, Inc., priority 2005, dated 2023).
Where two headings read alike, the source gives them in different places.

Test system: up-regulation of ICAM-1 (CD54) by IFNγ in U937 human monocytic cells
Assay: U937 IFNγ ICAM1 FACS Assay
Type: cell-based
Conditions: U937 cells stimulated with IFNγ, ICAM-1 expression by FACS, read-out: IC50, Example 44
Summary of the method: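 Readout was the geometric-mean APC anti-ICAM-1 signal by FACS on live U937 monocytic cells, with % live cells also recorded. Cells were exposed to compounds (8 points, 3-fold dilutions, duplicates) for 30 min at 37 °C before 18–24 h of IFNγ stimulation. EC50 values were computed from the dose curve.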

| IC50 | IC50 (sodium Salt) | Compound |
| --- | --- | --- |
| 1150 nM | – | COc1cc(Nc2ncc(F)c(Nc3ccc(OC(C)C#N)c(C)c3)n2)ccc1S(N)(=O)=O (racemic) [Compound I-64, Racemic N2-(4-Aminosulfonyl-3-methoxy)phenyl-N4-[4-(1-cyano)ethoxy-3-methyl]phenyl-5-fluoro-2,4-pyrimidinediamine] |
| 15600 nM | – | Cc1cc(Nc2nc(Nc3cccc(S(N)(=O)=O)c3)ncc2F)ccc1OCC(N)=O [Compound I-92, N4-(4-Aminocarbonylmethoxy-3-methyl)phenyl-N2-(3-aminosulfonyl)phenyl-5-fluoro-2,4-pyrimidinediamine] |
| 574 nM | – | Cc1ccc(Nc2ncc(F)c(Nc3cc(C)c(OC(C)C#N)c(C)c3)n2)cc1S(N)(=O)=O (racemic) [Compound I-72, Racemic N2-(3-Aminosulfonyl-4-methyl)phenyl-N4-[4-(1-cyano)ethoxy-3,5-dimethyl]phenyl-5-fluoro-2,4-pyrimidinediamine] |
| 1050 nM | – | Cc1cc(Nc2nc(Nc3ccc(F)c(S(N)(=O)=O)c3)ncc2F)ccc1OCC#N [Compound I-34, N2-(3-Aminosulfonyl-4-fluoro)phenyl-N4-(4-cyanomethoxy-3-methyl)phenyl-5-fluoro-2,4-pyrimidinediamine] |
| 1360 nM | – | CNS(=O)(=O)c1cc(Nc2ncc(F)c(Nc3ccc(Cn4ccnc4)cc3)n2)ccc1C [III-83, 5-Fluoro-N2-[3-(N-methylaminosulfony)-4-methylphenyl]-5-fluoro-N4-[4-(1-imidazolylmethyl)phenyl]-2,4-pyrimidinediamine] |
| 11100 nM | – | Cc1cc(Nc2nc(Nc3cccc(S(N)(=O)=O)c3)ncc2F)cc(C)c1OCC(N)=O [Compound I-93, N4-(4-Aminocarbonylmethoxy-3,5-dimethyl)phenyl-N2-(3-aminosulfonyl)phenyl-5-fluoro-2,4-pyrimidinediamine] |
| 239 nM | – | Cc1ccc(Nc2ncc(F)c(Nc3ccc(OC(C)C#N)cc3)n2)cc1S(N)(=O)=O (racemic) [Compound I-67, Racemic N2-(3-Aminosulfonyl-4-methyl)phenyl-N4-[4-(1-cyano)ethoxy]phenyl-5-fluoro-2,4-pyrimidinediamine] |
| 328 nM | – | Cc1cc(Nc2nc(Nc3cccc(S(N)(=O)=O)c3)ncc2F)cc(C)c1OC(C)C#N (racemic) [Compound I-71, Racemic N2-(3-Aminosulfonyl)phenyl-N4-[4-(1-cyano)ethoxy-3,5-dimethyl]phenyl-5-fluoro-2,4-pyrimidinediamine] |
| 848 nM | – | Cc1cc(Nc2nc(Nc3ccc(S(N)(=O)=O)cc3)ncc2F)ccc1OC(C)C#N (racemic) [Compound I-60, Racemic N2-(4-Aminosulfonyl)phenyl-N4-[4-(1-cyano)ethoxy-3-methyl]phenyl-5-fluoro-2,4-pyrimidinediamine] |
| 1120 nM | – | CC(C)(C#N)Oc1ccc(Nc2nc(Nc3cccc(S(N)(=O)=O)c3)ncc2F)cc1 [Compound I-76, N2-(3-Aminosulfonyl)phenyl-N4-[4-(1-cyano-1-methyl)ethoxy]phenyl-5-fluoro-2,4-pyrimidinediamine] |
| 735 nM | – | Cc1cc(Nc2nc(Nc3ccc(C)c(S(N)(=O)=O)c3)ncc2F)ccc1OC(C)C#N (racemic) [Compound I-62, Racemic N2-(3-Aminosulfonyl-4-methyl)phenyl-N4-[4-(1-cyano)ethoxy-3-methyl]phenyl-5-fluoro-2,4-pyrimidinediamine] |
| 356 nM | – | Cc1ccc(Nc2ncc(F)c(Nc3ccc4c(c3)CCN4S(C)(=O)=O)n2)cc1S(N)(=O)=O [VII-61, N2-(3-Aminosulfonyl-4-methylphenyl)-5-fluoro-N4-[4-(1-methylsulfonyl)indolin-5-yl]-2,4-pyrimidinediamine] |
| 1060 nM | – | Cc1ccc(Nc2ncc(F)c(Nc3ccc(OC(C)(C)C#N)cc3)n2)cc1S(N)(=O)=O [Compound I-73, N2-(3-Aminosulfonyl-4-methyl)phenyl-N4-[4-(1-cyano-1-methyl)ethoxy]phenyl-5-fluoro-2,4-pyrimidinediamine] |
| 140 nM | – | Cc1cnc(Nc2ccc(S(N)(=O)=O)cc2)nc1Nc1ccc(OCC#N)cc1 [Compound I-57, N2-(4-Aminosulfonylphenyl)-N4-(4-cyanomethoxyphenyl-5)-methyl-2,4-pyrimidinediamine] |
| 384 nM | – | COc1cc(Nc2ncc(F)c(Nc3ccc(OC(C)C#N)cc3)n2)ccc1S(N)(=O)=O (racemic) [Compound I-70, Racemic N2-(4-Aminosulfonyl-3-methoxy)phenyl-N4-[4-(1-cyano)ethoxy]phenyl-5-fluoro-2,4-pyrimidinediamine] |
| 6160 nM | – | Cc1ccc(Nc2ncc(F)c(Nc3cccc(OCC(N)=O)c3)n2)cc1S(N)(=O)=O [Compound I-90, N4-(3-Aminocarbonylmethoxy)phenyl-N2-(3-aminosulfonyl-4-methyl)phenyl-5-fluoro-2,4-pyrimidinediamine] |
| 5740 nM | – | Cc1ccc(Nc2ncc(F)c(Nc3ccc(OCC#N)cc3)n2)cc1S(=O)(=O)NC(=O)C(C)C [Compound I-37, N4-(4-Cyanomethyleneoxy)phenyl-5-fluoro-N2-(3-isobutyrylaminosulfonyl-4-methyl)phenyl-2,4-pyrimidinediamine] |

| IC50 | IC50 (sodium Salt) | Compound |
| --- | --- | --- |
| – | 5100 nM | CCC(=O)NS(=O)(=O)c1cccc(Nc2ncc(F)c(Nc3ccc(OCc4nc(C)no4)cc3)n2)c1 [Compound I-273] |
| 1820 nM | – | Cc1cc(Nc2nc(Nc3ccc(F)c(S(N)(=O)=O)c3)ncc2F)cc(C)c1OCC#N [Compound I-35, N2-(3-Aminosulfonyl-4-fluoro)phenyl-N4-(4-cyanomethoxy-3,5-dimethyl)phenyl-5-fluoro-2,4-pyrimidinediamine] |
| 6300 nM | – | Cc1cc(Nc2nc(Nc3ccc(C)c(S(N)(=O)=O)c3)ncc2F)ccc1OCC(N)=O [Compound I-95, N4-(4-Aminocarbonylmethoxy-3-methyl)phenyl-N2-(3-aminosulfonyl-4-methyl)phenyl-5-fluoro-2,4-pyrimidinediamine] |
| 427 nM | – | Cc1cc(Nc2nc(Nc3cccc(S(N)(=O)=O)c3)ncc2F)ccc1OC(C)C#N (racemic) [Compound I-61, Racemic N2-(3-Aminosulfonyl)phenyl-N4-[4-(1-cyano)ethoxy-3-methyl]phenyl-5-fluoro-2,4-pyrimidinediamine] |
| 913 nM | – | CC(C#N)Oc1ccc(Nc2nc(Nc3ccc(F)c(S(N)(=O)=O)c3)ncc2F)cc1 (racemic) [Compound I-68, Racemic N2-(3-Aminosulfonyl-4-fluoro)phenyl-N4-[4-(1-cyano)ethoxy]phenyl-5-fluoro-2,4-pyrimidinediamine] |
| 5670 nM | – | Cc1ccc(Nc2ncc(F)c(Nc3ccc(OCC(N)=O)cc3)n2)cc1S(N)(=O)=O [Compound I-94, N4-(4-Aminocarbonylmethoxy)phenyl-N2-(3-aminosulfonyl-4-methyl)phenyl-5-fluoro-2,4-pyrimidinediamine] |
| 3430 nM | – | NS(=O)(=O)c1cccc(Nc2ncc(F)c(Nc3ccc(Cn4ccnc4)cc3)n2)c1 [III-81, N2-(3-Aminosulfonylphenyl)-5-fluoro-N4-[4-(1-imidazolylmethyl)phenyl]-2,4-pyrimidinediamine] |
| 3100 nM | – | CC(C)(C#N)Oc1ccc(Nc2nc(Nc3ccc(S(N)(=O)=O)cc3)ncc2F)cc1 [Compound I-75, N2-(4-Aminosulfonyl)phenyl-N4-[4-(1-cyano-1-methyl)ethoxy]phenyl-5-fluoro-2,4-pyrimidinediamine] |
| 691 nM | – | Cc1cc(Nc2nc(Nc3ccc(S(N)(=O)=O)cc3)ncc2F)cc(C)c1OC(C)C#N (racemic) [Compound I-63, Racemic N2-(4-Aminosulfonyl)phenyl-N4-[4-(1-cyano)ethoxy-3,5-dimethyl]phenyl-5-fluoro-2,4-pyrimidinediamine] |
| 22900 nM | – | CNS(=O)(=O)c1cc(Nc2ncc(F)c(NCCc3ccc(-c4ccncc4)cc3)n2)ccc1C [III-78, 5-Fluoro-N2-[3-N-(methyl)aminosulfonyl-4-methylphenyl]-N4-[4-(4-pyridinyl)phenethyl]-2,4-pyrimidinediamine] |
| 689 nM | – | CC(C#N)Oc1ccc(Nc2nc(Nc3ccc(S(N)(=O)=O)cc3)ncc2F)cc1 (racemic) [Compound I-66, Racemic N2-(4-Aminosulfonyl)phenyl-N4-[4-(1-cyano)ethoxy]phenyl-5-fluoro-2,4-pyrimidinediamine] |
| 1770 nM | – | CNS(=O)(=O)c1cc(Nc2ncc(F)c(Nc3ccc(Cc4ccncc4)cc3)n2)ccc1C [III-75, 5-Fluoro-N2-[3-(N-methylaminosulfony)-4-methylphenyl]-5-fluoro-N4-[4-(4-pyridinylmethyl)phenyl]-2,4-pyrimidinediamine] |
| 771 nM | – | Cc1ccc(Nc2ncc(F)c(Nc3ccc(OCC#N)c(Cl)c3)n2)cc1S(N)(=O)=O [Compound I-43, N2-(3-Aminosulfonyl-4-methylphenyl)-N4-(3-chloro-4-cyanomethoxypheny)-5-fluoro-2,4-pyrimidinediamine] |
| 316 nM | – | CC(C#N)Oc1ccc(Nc2nc(Nc3cccc(S(N)(=O)=O)c3)ncc2F)cc1 (racemic) [Compound I-65, Racemic N2-(3-Aminosulfonyl)phenyl-N4-[4-(1-cyano)ethoxy]phenyl-5-fluoro-2,4-pyrimidinediamine] |
| 1760 nM | – | CC(C)(C#N)Oc1ccc(Nc2nc(Nc3ccc(F)c(S(N)(=O)=O)c3)ncc2F)cc1 [Compound I-74, N2-(3-Aminosulfonyl-4-fluoro)phenyl-N4-[4-(1-cyano-1-methyl)ethoxy]phenyl-5-fluoro-2,4-pyrimidinediamine] |
| 2270 nM | – | Cc1ccc(Nc2ncc(F)c(Nc3ccc(Cn4ccnc4)cc3)n2)cc1S(N)(=O)=O [III-82, N2-(3-Aminosulfonyl-4-methylphenyl)-5-fluoro-N4-[4-(1-imidazolylmethyl)phenyl]-2,4-pyrimidinediamine] |
